In US12344610B2, “APOL1 inhibitors and methods of use” (Maze Therapeutics, Inc., priority 2022, dated 2025):
Where two headings read alike, the source gives them in different places.

Tests used:
Assay type in all cases: cell-based
Conditions in all cases: geometric mean of at least 2 assay runs, † = single assay run
[1] = test system: HEK293 cells overexpressing APOL1 G2; test: APOL1 G2 HEK293 cell rescue assay (reversal of cell death caused by overexpression of APOL1)
Outline: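 EC50 is the half-maximal effective concentration for reversing cell death driven by APOL1 G2 overexpression in HEK293 cells. Reported as geometric mean of at least 2 runs on separate days, each run averaging duplicate wells per plate; some values from a single run.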

[2] = test system: Trypanosoma brucei Lister 427 VSG221 with APOL1 G0 recombinant protein; test: APOL1 G0 trypanosome cell rescue assay (Example B5)
Outline: (§1)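 Recombinant mature APOL1 (residues 28-398, His-tag removed, E. coli-expressed, refolded from inclusion bodies, DDM buffer) at […] added with 250 trypanosomes/well in modified HMI-9 media. Duplicate 11-point 2-fold compound series, 0.4% DMSO; 20 h at 37° C, 5% CO2, then CellTiter-Glo luminescence for viability.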

[3] = test system: Trypanosoma brucei Lister 427 VSG221 with APOL1 G1 recombinant protein; test: APOL1 G1 trypanosome cell rescue assay (Example B5)
Outline: as §1

[4] = Trypanosoma brucei, 20 h, read-out: APOL1 G0 Trypanosome Rescue EC50, Trypanosoma brucei Lister 427 VSG221 with APOL1 G0 recombinant protein, 20 hours, CellTiter-Glo
[5] = Trypanosoma brucei, 20 h, read-out: APOL1 G1 Trypanosome Rescue EC50, Trypanosoma brucei Lister 427 VSG221 with APOL1 G1 recombinant protein, 20 hours, CellTiter-Glo
[6] = Homo sapiens, HEK293, HEK293 overexpressing APOL1 G2
[7] = read-out: APOL1 G0 Trypanosome Rescue EC50, Trypanosoma brucei Lister 427 VSG221 with APOL1 G0 recombinant protein, 20 hours, CellTiter-Glo
[8] = read-out: APOL1 G1 Trypanosome Rescue EC50, Trypanosoma brucei Lister 427 VSG221 with APOL1 G1 recombinant protein, 20 hours, CellTiter-Glo

SMILES | EC50 ([1]; HEK293 overexpressing APOL1 G2) | EC50 [2, 4] | EC50 [3, 5] | EC50 [1, 6] | EC50 [2, 7] | EC50 [3, 8]
CC(COc1ccc2c(c1)CCC(=O)N2C)N1CCC2(CC1)C(=O)Nc1ccc(Cl)cc12 (single isomer, unassigned) [Compound 200] | 87.2 nM | 185 nM | 192 nM | – | – | –
CC(COc1ccc2c(c1)CCC(=O)N2C)N1CCC2(CC1)C(=O)Nc1ccc(C#N)cc12 (single isomer, unassigned) [Compound 203, (S) or (R)-1′-{1-[(1-methyl-2-oxo-1,2,3,4-tetrahydroquinolin-6-yl)oxy]propan-2-yl}-2-oxo-1,2-dihydrospiro[indole-3,4′-piperidine]-5-carbonitrile] | 187 nM | 565 nM | 583 nM | – | – | –
C[C@@H](COc1ccc(S(C)(=O)=O)c(C(F)F)c1)N1CCC2(CC1)C(=O)Nc1ccc(Cl)cc12 (single isomer, unassigned) [Compound 210] | – | 63.8 nM | 71.1 nM | 63.3 nM | – | –
C[C@@H](COc1ccc2c(cnn2C)c1)N1CCC2(CC1)C(=O)Nc1ccc(Cl)cc12 (single isomer, unassigned) [Compound 211] | – | 480 nM | 527 nM | 138 nM | – | –
C[C@@H](COc1ccc(S(C)(=O)=O)c(C(F)F)c1)N1CCC2(CC1)C(=O)Nc1ccc(C#N)cc12 (single isomer, unassigned) [Compound 212] | – | 69.6 nM | 103 nM | 81.4 nM | – | –
CS(=O)(=O)c1ccc(OCCN2CCC3(CC2)C(=O)Nc2ccc(Cl)cc23)cc1C(F)CF (single isomer, unassigned) [Compound 218, 5-chloro-1′-(2-{3-[(1S or 1R)-1,2-difluoroethyl]-4-methanesulfonylphenoxy}ethyl)-1,2-dihydrospiro[indole-3,4′-piperidin]-2-one] | – | – | – | 25.6 nM | 65.1 nM | 108 nM
CS(=O)(=O)c1ccc(OCCN2CCC3(CC2)C(=O)Nc2ccc(Cl)cc23)cc1C(F)CF (single isomer, unassigned) [Compound 219, 5-chloro-1′-(2-{3-[(1R or 1S)-1,2-difluoroethyl]-4-methanesulfonylphenoxy}ethyl)-1,2-dihydrospiro[indole-3,4′-piperidin]-2-one] | 26.3 nM | – | – | – | 22.3 nM | 39 nM
CS(=O)(=O)c1ccc(OCCN2CCC3(CC2)C(=O)Nc2ccc(C#N)cc23)cc1C(F)CF (single isomer, unassigned) [Compound 221, 1′-(2-{3-[(1S or 1R)-1,2-difluoroethyl]-4-methanesulfonyl-phenoxy}ethyl)-2-oxo-1,2-dihydrospiro [indole-3,4′-piperidine]-5-carbonitrile] | 47.4 nM | 75 nM | 129 nM | – | – | –
CC(COc1ccc(C2(S(C)(=O)=O)COC2)cc1)N1CCC2(CC1)C(=O)Nc1ccc(C#N)cc12 (single isomer, unassigned) [Compound 263, (S) or (R)-1′-{1-[4-(3-methanesulfonyloxetan-3-yl)phenoxy]propan-2-yl}-2-oxo-1,2-dihydrospiro[indole-3,4′-piperidine]-5-carbonitrile] | 198 nM | 226 nM | 320 nM | – | – | –
CN1C(=O)C2(CCN(CCOc3ccc(C4(S(C)(=O)=O)CC(O)C4)cc3)CC2)c2cc(C(F)F)ccc21 (single isomer, unassigned) [Compound 278, 5-(difluoromethyl)-1-methyl-1′-(2-{4-[(cis) or (trans)-3-hydroxy-1-methanesulfonylcyclobutyl]phenoxy}ethyl)-1,2-dihydrospiro[indole-3,4′-piperidin]-2-one] | 23 nM | 114 nM | – | – | – | 111 nM
CS(=O)(=O)C1(c2ccc(OCCN3CCC4(CC3)C(=O)Nc3ccc(C(F)F)cc34)cc2)CC(O)C1 (single isomer, unassigned) [Compound 281, 5-(difluoromethyl)-1′-(2-{4-[(cis) or (trans)-3-hydroxy-1-methanesulfonylcyclobutyl]phenoxy}ethyl)-1,2-dihydrospiro[indole-3,4′-piperidin]-2-one] | 56 nM | 95.9 nM | – | – | – | 101 nM
CC(O)c1ncc(OCCN2CCC3(CC2)C(=O)Nc2ccc(Cl)cc23)cn1 (single isomer, unassigned) [Compound 285, 5-chloro-1′-[2-({2-[(1S) or (1R)-1-hydroxyethyl]pyrimidin-5-yl}oxy)ethyl]-1,2-dihydrospiro[indole-3,4′-piperidin]-2-one] | – | 547 nM | 749 nM | 200 nM | – | –
CC(O)c1ncc(OCCN2CCC3(CC2)C(=O)Nc2ccc(Cl)cc23)cn1 (single isomer, unassigned) [Compound 286, 5-chloro-1′-[2-({2-[(1R) or (1S)-1-hydroxyethyl]pyrimidin-5-yl}oxy)ethyl]-1,2-dihydrospiro[indole-3,4′-piperidin]-2-one] | 181 nM | – | – | – | 505 nM | 629 nM
CC(O)c1ncc(OCCN2CCC3(CC2)C(=O)Nc2ccc(C(F)F)cc23)cc1C(F)(F)F (single isomer, unassigned) [Compound 287, 5-(difluoromethyl)-1′-[2-({6-[(1S) or (1R)-1-hydroxyethyl]-5-(trifluoromethyl)pyridin-3-yl}oxy)ethyl]-1,2-dihydrospiro[indole-3,4′-piperidin]-2-one] | – | 37.6 nM | 50 nM | 33.5 nM | – | –
CC(O)c1ncc(OCCN2CCC3(CC2)C(=O)Nc2ccc(C(F)F)cc23)cc1C(F)(F)F (single isomer, unassigned) [Compound 288, 5-(difluoromethyl)-1′-[2-({6-[(1R) or (1S)-1-hydroxyethyl]-5-(trifluoromethyl)pyridin-3-yl}oxy)ethyl]-1,2-dihydrospiro[indole-3,4′-piperidin]-2-one] | 34.1 nM | – | – | – | 26.2 nM | 36.1 nM
CC[C@]1(O)C[C@H](N2C(=O)CCc3cc(OCCN4CCC5(CC4)C(=O)Nc4ccc(Cl)cc45)cnc32)C1 (single isomer, unassigned) [Compound 290, 5-chloro-1′-[2-({7-oxo-8-[(trans)-3-ethyl-3-hydroxycyclobutyl]-5,6,7,8-tetrahydro-1,8-naphthyridin-3-yl}oxy)ethyl]-1,2-dihydrospiro[indole-3,4′-piperidin]-2-one] | – | 55.5 nM | 69.2 nM | 18.2 nM | – | –
CC(O)c1ncc(OCCN2CCC3(CC2)C(=O)Nc2ccc(Cl)cc23)cc1C(F)(F)F (single isomer, unassigned) [Compound 291, 5-chloro-1′-[2-({6-[(1R) or (1S)-1-hydroxyethyl]-5-(trifluoromethyl)pyridin-3-yl}oxy)ethyl]-1,2-dihydrospiro[indole-3,4′-piperidin]-2-one] | – | 63.1 nM | – | 26.4 nM | – | 79.7 nM
CC(O)c1ncc(OCCN2CCC3(CC2)C(=O)Nc2ccc(Cl)cc23)cc1C(F)(F)F (single isomer, unassigned) [Compound 292, 5-chloro-1′-[2-({6-[(1S) or (1R)-1-hydroxyethyl]-5-(trifluoromethyl)pyridin-3-yl}oxy)ethyl]-1,2-dihydrospiro[indole-3,4′-piperidin]-2-one] | 23.2 nM | – | – | – | 31.6 nM | 39.6 nM
